Experiments:
Format in all cases: biochemical
Casein Kinase 1 = target: T1, Casein Kinase 1 (Rattus norvegicus, UniProt Q06486); test: Biotinylated Peptide Substrate Assay, Casein Kinase 1
T1 construct: a protein truncation at amino acid 318 of the C-terminal portion of the rat CK1 delta isoform; purchased New England Biolabs, Beverly, Mass; 6030; host or cells: E. coli
T1 sequence (Q06486 1-317 limits assumed): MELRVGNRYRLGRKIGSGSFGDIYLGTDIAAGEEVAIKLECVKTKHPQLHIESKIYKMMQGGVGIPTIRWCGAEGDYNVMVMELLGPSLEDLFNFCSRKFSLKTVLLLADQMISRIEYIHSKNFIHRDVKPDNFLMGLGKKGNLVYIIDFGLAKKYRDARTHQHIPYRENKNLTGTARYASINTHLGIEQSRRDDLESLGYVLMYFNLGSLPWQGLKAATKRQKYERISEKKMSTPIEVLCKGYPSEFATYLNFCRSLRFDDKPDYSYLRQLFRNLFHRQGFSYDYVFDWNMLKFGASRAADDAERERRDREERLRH
Experimental: (§1) Assays to test inhibition of a compound for other kinases were preformed using methods that measure the amount of phosphorylation of a biotinylated peptide substrate. Biotinylated peptide substrates were selected from the literature as appropriate for the enzyme being evaluated.
(§2) A kinase reaction mix was prepared in 50 mM Tris-HCl pH=8, 10 mM MgCl2, 0.1 mM Na3VO4, 1 mM DTT, 10 μM ATP, 0.25-1 μM biotinylated peptide substrate, 0.2-0.8 μCuries per well ^33P-γ-ATP (2000-3000 Ci/mmol). Assay conditions vary slightly for each protein kinase, for example, insulin receptor kinase requires 10 mM MnCl2 for activity and Calmodulin-dependent protein kinase requires calmodulin and 10 mM CaCl2. The reaction mixture was dispensed into the wells of a streptavidin coated Flashplate and 1 μL drug stock in 100% DMSO was added to a 100 μL reaction volume resulting in a final concentration of 1% DMSO in the reaction. Enzyme was diluted in 50 mM Tris-HCl pH=8.0, 0.1% BSA and added to each well. The reaction was incubated for one hour at 30° C. in the presence of compound. After one hour the reaction mix was aspirated from the plate and the plate was washed with PBS containing 100 mM EDTA. The plate was read on a scintillation counter to determine ^33P-γ-ATP incorporated into the immobilized peptide. Test compounds were assayed in duplicate at 8 concentrations (100 uM, 10 uM, 1 uM, 100 nM, 10 nM, 1 nM, 100 pM, 10 pM). A maximum and minimum signal for the assay was determined on each plate.
(§3) The IC50 was calculated from the dose response curve of the percent inhibition of the maximum signal in the assay according to the formula:
(§4) % Inhibition=((MS−BS)/(TCS−BS))×100%
(§5) where MS=Maximum Signal, BS=Background Signal, TCS=Test Compound Signal. The percent inhibition was graphed against the log concentration of the test compound. Known inhibitor compounds as appropriate references for the kinase being assayed were also included on each plate.
(§6) VEGF-R (vascular endothelial growth factor receptor-2) is a fusion protein containing a polyhistidine tag at the N-terminus followed by amino acids 786-1343 of the rat VEGF-R2 kinase domain (GenBank Accession #U93306). Protein Kinase A is the catalytic subunit of cAMP dependent protein kinase-A purified from bovine heart (Upstate Biotech, Lake Placid, N.Y., Cat#14-114). CDK1 (cyclin dependent kinase 1) is isolated from insect cells expressing both the human CDK1 catalytic subunit and its positive regulatory subunit cyclin B (New England Biolabs, Beverly, Mass., Cat. #6020). Casein Kinase-1 is a protein truncation at amino acid 318 of the C-terminal portion of the rat CK1 delta isoform produced in E.coli (New England Biolabs, Beverly, Mass., Cat. #6030). […]

PKC-γ = target: T2, PKC-γ (Homo sapiens, UniProt P05129); test: Protein Kinase C Scintillation Proximity Assay (SPA), PKC-γ; conditions: inhibition value, recombinant human isozyme, 1 μM ATP
T2 construct: purchased PanVera, Madison Wis; host or cells: baculovirus expression vector
Experimental: (§7) The binding activity of a compound for Protein Kinase C (PKC) was assessed using a homogeneous Scintillation Proximity Assay according to the procedure below.
(§8) The different human PKC isozymes (were obtained from PanVera, Madison Wis. and had been prepared as recombinant enzymes produced from a baculovirus expression vector) were added to a reaction mixture containing a test compound, 20 mM HEPES (pH 7.4), 100 μM CaCl2, 10 mM MgCl2, 100 μg/mL phosphatidylserine, 20 μg/mL diacylglycerol, 1 μM ATP, 0.8 μCi (^33P)ATP, and 5 μg/mL biotinylated substrate peptide (Jing Zhao et al., J. Bio. Chem., 1998, 273, 23072). The reaction was incubated for 15 min at 30° C. Reactions were terminated by the addition of streptavidin-coated SPA beads (Amersham) in a solution containing 1 mM EGTA, 10 mM EDTA and 100 μM ATP. Beads were allowed to settle overnight and the plates read in a Wallac MICROBETA scintillation counter (PerkinElmer Life sciences, Wellesley, Mass.).
(§9) Values for inhibition of various PKC isozymes and GSK 3-β by certain compounds of the invention tested in the PKC SPA and GSK 3-β assays are shown in Table 1.

Map kinase ERK-2 = target: T3, Map kinase ERK-2 (Rattus norvegicus, UniProt P63086); test: Biotinylated Peptide Substrate Assay, Map kinase ERK-2
T3 construct: polyhistidine (N); purchased BIOMOL, Plymouth Meeting, Pa; SE-137; host or cells: E. coli
Experimental: as §1, §2, §3, §4, §5, §6

CDK1 = target: T4, CDK1 (Homo sapiens, UniProt P06493); test: Biotinylated Peptide Substrate Assay, CDK1; conditions: read-out: CDK1 Kinase Assay (IC50 uM)
T4 construct: purchased New England Biolabs, Beverly, Mass; 6020; host or cells: insect cells
Experimental: as §1, §2, §3, §4, §5, §6

Calmodulin Kinase 2 = target: T5, Calmodulin Kinase 2 (Rattus norvegicus, UniProt P11275); test: Biotinylated Peptide Substrate Assay, Calmodulin Kinase 2
T5 construct: purchased New England Biolabs, Beverly, Mass; 6060; host or cells: insect cells
Experimental: as §1, §2, §3, §4, §5, §6

PKC-βI = target: T6, PKC-βI (Homo sapiens, UniProt P05771); test: Protein Kinase C Scintillation Proximity Assay (SPA), PKC-βI; conditions: inhibition value, recombinant human isozyme, 1 μM ATP
T6 construct: purchased PanVera, Madison Wis; host or cells: baculovirus expression vector
Experimental: as §7, §8, §9

T6 sequence (P05771 whole entry): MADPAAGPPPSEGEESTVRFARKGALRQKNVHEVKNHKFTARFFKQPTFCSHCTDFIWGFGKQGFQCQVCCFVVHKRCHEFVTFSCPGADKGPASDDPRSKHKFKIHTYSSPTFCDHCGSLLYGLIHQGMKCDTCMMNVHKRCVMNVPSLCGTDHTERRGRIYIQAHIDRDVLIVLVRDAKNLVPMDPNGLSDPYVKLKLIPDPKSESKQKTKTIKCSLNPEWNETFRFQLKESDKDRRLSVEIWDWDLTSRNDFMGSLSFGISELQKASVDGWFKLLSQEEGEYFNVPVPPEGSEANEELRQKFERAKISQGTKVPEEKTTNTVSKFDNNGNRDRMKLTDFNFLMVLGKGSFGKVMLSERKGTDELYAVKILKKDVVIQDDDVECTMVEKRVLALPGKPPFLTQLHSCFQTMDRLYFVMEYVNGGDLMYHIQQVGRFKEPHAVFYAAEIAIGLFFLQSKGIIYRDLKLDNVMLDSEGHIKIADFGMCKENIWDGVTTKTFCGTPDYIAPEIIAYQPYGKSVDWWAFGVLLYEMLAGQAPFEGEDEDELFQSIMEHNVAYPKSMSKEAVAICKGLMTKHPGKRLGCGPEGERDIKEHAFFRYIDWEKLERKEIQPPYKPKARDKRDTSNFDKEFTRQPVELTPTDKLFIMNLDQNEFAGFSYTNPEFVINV
T4 sequence (P06493 whole entry): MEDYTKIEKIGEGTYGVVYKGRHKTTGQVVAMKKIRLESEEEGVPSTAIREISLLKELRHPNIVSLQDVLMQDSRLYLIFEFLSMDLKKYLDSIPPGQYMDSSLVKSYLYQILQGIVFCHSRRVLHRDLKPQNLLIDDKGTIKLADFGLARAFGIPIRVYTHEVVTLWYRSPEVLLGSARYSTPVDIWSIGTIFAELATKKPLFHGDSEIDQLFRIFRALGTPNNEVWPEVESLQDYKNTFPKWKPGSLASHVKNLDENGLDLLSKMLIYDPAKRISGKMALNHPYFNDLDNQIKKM
T4 sequence (P14635 whole entry partner): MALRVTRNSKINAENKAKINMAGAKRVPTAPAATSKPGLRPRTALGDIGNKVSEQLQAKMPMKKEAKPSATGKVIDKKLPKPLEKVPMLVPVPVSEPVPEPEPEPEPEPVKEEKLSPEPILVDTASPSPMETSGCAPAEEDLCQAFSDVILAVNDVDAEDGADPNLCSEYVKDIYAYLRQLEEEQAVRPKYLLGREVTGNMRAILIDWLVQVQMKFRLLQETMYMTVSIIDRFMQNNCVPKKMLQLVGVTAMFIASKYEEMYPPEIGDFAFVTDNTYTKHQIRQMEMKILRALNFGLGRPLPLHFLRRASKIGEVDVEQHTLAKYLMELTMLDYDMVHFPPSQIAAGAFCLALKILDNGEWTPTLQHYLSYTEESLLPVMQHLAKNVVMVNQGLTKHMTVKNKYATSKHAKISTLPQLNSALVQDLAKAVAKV
T3 sequence (P63086 whole entry): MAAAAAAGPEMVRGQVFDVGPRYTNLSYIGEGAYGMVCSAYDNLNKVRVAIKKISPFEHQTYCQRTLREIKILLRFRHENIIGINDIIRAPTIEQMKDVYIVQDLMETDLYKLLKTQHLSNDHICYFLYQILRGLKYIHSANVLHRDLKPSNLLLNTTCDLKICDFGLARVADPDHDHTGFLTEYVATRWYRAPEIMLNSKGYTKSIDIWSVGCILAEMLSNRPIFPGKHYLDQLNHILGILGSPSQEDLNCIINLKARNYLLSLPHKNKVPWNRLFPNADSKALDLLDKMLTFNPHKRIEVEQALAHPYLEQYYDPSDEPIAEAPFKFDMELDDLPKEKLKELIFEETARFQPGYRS

| IC50 (Casein Kinase 1) [µM] | IC50 (PKC-γ) [µM] | IC50 (Map kinase ERK-2) [µM] | IC50 (CDK1) [µM] | IC50 (Calmodulin Kinase 2) [µM] | IC50 (PKC-βI) [µM] | Compound |
| --- | --- | --- | --- | --- | --- | --- |
| > 10 | 38.7 | > 10 | > 10 | > 10 | 18.5 | O=C1NC(=O)C2=C1c1cn(c3ncccc13)CCOCCOCCOCCn1cc2c2cccnc21 [Cpd 1] |
| > 10 | > 100 | > 10 | > 10 | > 10 | > 100 | O=C1NC(=O)C2=C1c1cn(c3ncccc13)CCOCCOCCOCCOCCn1cc2c2cccnc21 [Cpd 2] |
| > 10 | 7.8 | > 10 | 0.422 | > 10 | 5.15 | O=C1NC(=O)C2=C1c1cn(c3ccccc13)CCOCCOCCn1cc2c2cccnc21 [Cpd 10] |
| > 10 | 2.85 | > 10 | 0.457 | > 10 | 1.06 | O=C1NC(=O)C2=C1c1cn(c3ccccc13)CCOCCOCCOCCn1cc2c2cccnc21 [Cpd 11] |

From patent publication US6828327B2, “Macroheterocylic compounds useful as kinase inhibitors” (Ortho-McNeil Pharmaceutical, Inc., priority 2000, dated 2004)
